# Results as given in patent US20090191193A1, “Aryl Vinyl Sulfides, Sulfones, Sulfoxides and Sulfonamides, Derivatives Thereof and Therapeutic Uses Thereof” (TEMPLE UNIVERSITY-OF THE COMMONWEALTH SYSTEM OF HIGHER …, priority 2006, published 2009).
# Assays:
# [1] = tested on: K562 (chronic myelogenous leukaemia); assay: Effect on tumor cell lines, viable cell count by trypan blue exclusion (Latham et al.): K562; format: cell-based; settings: K562 chronic myelogenous leukaemia cells, viable cell count 96 hours after treatment
# DU145 (prostate cancer) = assay: Effect on tumor cell lines, viable cell count by trypan blue exclusion (Latham et al.): DU145; format: cell-based; settings: DU145 prostate cancer cells, viable cell count 96 hours after treatment
Structure (SMILES),"IC50 ([1]; Homo sapiens, K562, 96 h)",melting point,"IC50 (DU145 (prostate cancer); Homo sapiens, DU-145, 96 h)",IC50 [1],IC50 (DU145 (prostate cancer))
COc1ccc(/C=C(\C#N)S(=O)(=O)Cc2ccccc2)c(F)c1 [Example 129],50 to 100 µM,161 to 166 °C,> 100 µM,,
N#C/C(=C\c1ccccc1Cl)S(=O)(=O)Cc1ccccc1 [Example 130],> 100 µM,155 to 160 °C,> 100 µM,,
COc1ccc(/C=C(\C#N)S(=O)(=O)Cc2ccccc2)c(OC)c1 [Example 132],> 100 µM,125 to 130 °C,> 100 µM,,
COc1ccc(/C=C(\C#N)S(=O)(=O)Cc2ccccc2)cc1OC [Example 133],50 to 100 µM,170 to 174 °C,> 100 µM,,
COc1cc(/C=C(\C#N)S(=O)(=O)Cc2ccccc2)cc(OC)c1 [Example 134],10 to 25 µM,152 to 156 °C,50 to 100 µM,,
Cc1ccc(C)c(/C=C(\C#N)S(=O)(=O)Cc2ccccc2)c1 [Example 136],1 to 10 µM,126 to 129 °C,25 to 50 µM,,
N#C/C(=C\c1ccc(O)c([N+](=O)[O-])c1)S(=O)(=O)Cc1ccccc1 [Example 139],50 to 100 µM,159 to 162 °C,> 100 µM,,
N#C/C(=C\c1cc(F)cc(F)c1)S(=O)(=O)Cc1ccccc1 [Example 143],25 to 50 µM,148 to 150 °C,> 100 µM,,
COc1ccc(CS(=O)(=O)/C(C#N)=C/c2ccc(Cl)c(Cl)c2Cl)cc1 [Example 146],25 to 50 µM,136 to 138 °C,50 to 100 µM,,
COc1ccc(CS(=O)(=O)/C(C#N)=C/c2ccc(OC)cc2OC)cc1 [Example 147],> 100 µM,156 to 160 °C,> 100 µM,,
COc1ccc(CS(=O)(=O)/C(C#N)=C/c2ccc(OC)c(OC)c2)cc1 [Example 148],25 to 50 µM,155 to 160 °C,50 to 100 µM,,
COc1ccc(NS(=O)(=O)/C(C#N)=C/c2ccc(Br)cc2)cc1 [Example 190],50 µM,106 to 107 °C,50 µM,,
COc1ccc(NS(=O)(=O)/C(C#N)=C/c2c(F)c(F)c(F)c(F)c2F)cc1 [Example 192],1 to 10 µM,100 to 102 °C,10 to 25 µM,,
"COc1ccc(NS(=O)(=O)/C(C#N)=C/c2c(F)c(F)c(F)c(F)c2F)cc1OS(=O)(=O)c1ccc(C)cc1 [Example 194, (E)-2-[(4-methoxy-3-(4-methylphenylsulfonyloxy)phenyl)sulfamoyl]-3-(2,3,4,5,6-pentafluorophenyl)acrylonitrile]",1 to 10 µM,112 to 114 °C,1 to 10 µM,,
N#C/C(=C\c1c[nH]c2ccccc12)S(=O)(=O)Nc1ccccc1Oc1ccccc1 [Example 197],50 to 100 µM,210 to 212 °C,50 to 100 µM,,
Cc1ccc(/C=C(\C#N)S(=O)(=O)Nc2ccccc2Oc2ccccc2)s1 [Example 198],50 to 100 µM,141 to 143 °C,50 to 100 µM,,
COc1ccc(NS(=O)(=O)/C(C#N)=C/c2ccccc2OC)cc1 [Example 204],50 to 100 µM,133 to 135 °C,> 100 µM,,
N#C/C(=C\c1c[nH]c2ccccc12)S(=O)(=O)Nc1ccc(Cl)cc1 [Example 205],25 to 50 µM,216 to 217 °C,50 to 100 µM,,
CN(C)c1ccc(/C=C(\C#N)S(=O)(=O)Nc2ccccc2Oc2ccccc2)cc1 [Example 206],> 100 µM,158 to 160 °C,> 100 µM,,
CCOc1ccc(/C=C(\C#N)S(=O)(=O)Nc2ccccc2Oc2ccccc2)cc1OC [Example 211],1 to 10 µM,142 to 144 °C,1 to 10 µM,,

# Results, then the molecule that gave them:
"IC50 ([1]; Homo sapiens, K562, 96 h)",melting point,"IC50 (DU145 (prostate cancer); Homo sapiens, DU-145, 96 h)",IC50 [1],IC50 (DU145 (prostate cancer)),Structure (SMILES)
50 to 100 µM,142 to 146 °C,> 100 µM,,,COc1cc(/C=C(\C#N)S(=O)(=O)Cc2ccccc2)cc(OC)c1OC [Example 131]
> 100 µM,140 to 143 °C,> 100 µM,,,COc1ccc(OC)c(/C=C(\C#N)S(=O)(=O)Cc2ccccc2)c1 [Example 135]
50 to 100 µM,93 to 97 °C,> 100 µM,,,N#C/C(=C\c1ccccc1OCc1ccccc1)S(=O)(=O)Cc1ccccc1 [Example 137]
> 100 µM,163 to 167 °C,> 100 µM,,,COc1ccc(/C=C(\C#N)S(=O)(=O)Cc2ccc(OC)cc2)cc1 [Example 141]
> 100 µM,133 to 135 °C,> 100 µM,,,N#C/C(=C\c1ccc(F)cc1F)S(=O)(=O)Cc1ccccc1 [Example 142]
25 to 50 µM,143 to 147 °C,> 100 µM,,,N#C/C(=C\c1ccccc1Cl)S(=O)(=O)Cc1ccc(Br)cc1 [Example 144]
> 100 µM,159 to 163 °C,> 100 µM,,,N#C/C(=C\c1ccccc1Cl)S(=O)(=O)Cc1ccc(F)cc1 [Example 145]
50 to 100 µM,135 to 140 °C,> 100 µM,,,COc1ccc(CS(=O)(=O)/C(C#N)=C/c2cc(OC)cc(OC)c2)cc1 [Example 149]
,134 to 136 °C,,1 to 10 µM,1 to 10 µM,COc1ccc(NS(=O)(=O)/C(C#N)=C/c2c(OC)cc(OC)cc2OC)cc1 [Example 191]
50 to 100 µM,94 to 96 °C,50 to 100 µM,,,COc1ccc(/C=C(\C#N)S(=O)(=O)Nc2ccc(Cl)cc2)cc1 [Example 195]
50 to 100 µM,129 to 134 °C,50 to 100 µM,,,N#C/C(=C\c1ccc(Br)cc1)S(=O)(=O)Nc1ccccc1Oc1ccccc1 [Example 196]
50 to 100 µM,116 to 118 °C,> 100 µM,,,COc1ccccc1/C=C(\C#N)S(=O)(=O)Nc1ccccc1Oc1ccccc1 [Example 199]
50 to 100 µM,107 to 109 °C,> 100 µM,,,COc1ccc(NS(=O)(=O)/C(C#N)=C/c2ccc(F)cc2)cc1 [Example 200]
10 to 25 µM,156 to 158 °C,50 to 100 µM,,,COc1ccc(NS(=O)(=O)/C(C#N)=C/c2cc(OC)ccc2OC)cc1 [Example 202]
50 to 100 µM,136 to 138 °C,50 to 100 µM,,,N#C/C(=C\c1ccc(Cl)cc1)S(=O)(=O)Nc1ccccc1Oc1ccccc1 [Example 207]
25 to 50 µM,154 to 156 °C,50 to 100 µM,,,COc1cc(OC)c(/C=C(\C#N)S(=O)(=O)Nc2ccccc2Oc2ccccc2)c(OC)c1 [Example 208]
50 to 100 µM,83 to 85 °C,> 100 µM,,,N#C/C(=C\c1ccc(O)c([N+](=O)[O-])c1)S(=O)(=O)Nc1ccccc1Oc1ccccc1 [Example 209]
1 to 10 µM,138 to 140 °C,25 to 50 µM,,,N#C/C(=C\c1ccccc1Oc1ccccc1)S(=O)(=O)Nc1ccccc1Oc1ccccc1 [Example 210]
25 to 50 µM,169 to 171 °C,25 to 50 µM,,,N#C/C(=C\c1ccc(Cl)cc1)S(=O)(=O)Nc1ccc(Br)cc1 [Example 212]
25 to 50 µM,128 to 130 °C,25 to 50 µM,,,N#C/C(=C\c1ccccc1OCc1ccccc1)S(=O)(=O)Nc1ccc(Br)cc1 [Example 213]
